Measurements published in US10597388B2, “Pyridazinone herbicides” (FMC CORPORATION, priority 2014, dated 2020).
Read-outs that look alike come from different tables or passages of the source.

How the values were obtained:
Type in all cases: in vivo
[1] = tested on: oilseed rape (Brassica napus); experiment: Test C greenhouse herbicide test, pre- and postemergence
Method in brief: (§1)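 Pre- and postemergence greenhouse screen; values are visual control ratings, 0 meaning no effect and 100 complete kill, assigned relative to untreated plants after 13 to 15 d.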

[2] = tested on: ragweed (common ragweed, Ambrosia elatior); experiment: as above
Method in brief: as §1

[3] = tested on: johnsongrass (Sorghum halepense); experiment: as above
Method in brief: as §1

[4] = tested on: foxtail, giant (giant foxtail, Setaria faberii); experiment: Test A greenhouse herbicide test, pre- and postemergence; details: Setaria faberi, 240 h; for pest or weed control at 1000 g/ha: 1000 g ai/ha; for pest or weed control at 1000 g/ha / pest or weed control at 500 g/ha: 0 to 100 scale; for pest or weed control at 125 g/ha: 125 g ai/ha; for pest or weed control at 500 g/ha: 500 g ai/ha
Method in brief: (§2)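 Seeds in loam–sand blend received a preemergence directed soil spray; plants at 2–10 cm, one- to two-leaf stage, received postemergence sprays. Compounds in a non-phytotoxic solvent with surfactant. After about 10 d in a greenhouse, injury rated visually versus untreated controls on a 0–100 scale (100 = complete control).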

[5] = tested on: wheat (Triticum aestivum); experiment: as above; details: Triticum aestivum, 240 h; for plant injury at 1000 g/ha: 1000 g ai/ha; for plant injury at 1000 g/ha / plant injury at 500 g/ha: 0 to 100 scale; for plant injury at 125 g/ha: 125 g ai/ha; for plant injury at 500 g/ha: 500 g ai/ha
Method in brief: as §2

corn (Zea mays) = experiment: as above; details: Zea mays, 240 h; for plant injury at 1000 g/ha / Corn plant response rating (crop injury, 0 = no effect, 100 = complete kill) at 1000 g/ha: 1000 g ai/ha
Method in brief: as §2

[6] = tested on: pigweed (Amaranthus retroflexus); experiment: as above; details: Amaranthus retroflexus, 240 h; for pest or weed control at 1000 g/ha: 1000 g ai/ha; for pest or weed control at 1000 g/ha / pest or weed control at 500 g/ha: 0 to 100 scale; for pest or weed control at 125 g/ha: 125 g ai/ha; for pest or weed control at 500 g/ha: 500 g ai/ha
Method in brief: as §2

[7] = Postemergence, 31 g ai/ha, 0 to 100 scale (0 no effect, 100 complete control)
[8] = Postemergence, 125 g ai/ha, scale 0 to 100, 0 is no effect, 100 is complete control
[9] = Postemergence, 250 g ai/ha, scale 0 to 100, 0 no effect, 100 complete control, 13 to 15 d
[10] = Preemergence, 31 g ai/ha, scale 0 to 100, 0 is no effect, 100 is complete control
[11] = Preemergence, 62 g ai/ha, scale 0 to 100, 0 is no effect, 100 is complete control
[12] = Preemergence, 125 g ai/ha, scale 0 to 100, 0 is no effect, 100 is complete control
[13] = Preemergence, 250 g ai/ha, scale 0 to 100, 0 no effect, 100 complete control
[14] = postemergence, 62 g ai/ha, scale 0 to 100, 0 no effect, 100 complete control
[15] = post-emergence, Postemergence, 0 is no effect, 100 is complete control, read-out: Foxtail, Giant plant response rating
[16] = pre-emergence, Preemergence, 0 no effect, 100 complete control, read-out: Plant response rating, Foxtail, Giant
[17] = post-emergence, Postemergence, 0 is no effect, 100 is complete control, read-out: Wheat plant response rating
[18] = pre-emergence, Preemergence, 0 no effect, 100 complete control, read-out: Plant response rating, Wheat
[19] = post-emergence, Postemergence, 0 to 100 scale, 0 is no effect, 100 is complete control, read-out: Corn plant response rating
[20] = pre-emergence, Preemergence, 0 to 100 scale, 0 no effect, 100 complete control
[21] = post-emergence, Postemergence, 0 is no effect, 100 is complete control, read-out: Pigweed plant response rating
[22] = pre-emergence, Preemergence, 0 no effect, 100 complete control, read-out: Plant response rating, Pigweed

| Structure (SMILES) | Oilseed Rape plant response rating [1, 7] | Plant response rating, Oilseed Rape [1, 8] | Plant response rating, Oilseed Rape [1, 9] | Plant response rating, Oilseed Rape [1, 10] | Plant response rating, Oilseed Rape [1, 11] | Plant response rating, Oilseed Rape [1, 12] | Oilseed Rape plant response rating [1, 13] | Oilseed Rape plant response rating [1, 14] | Ragweed plant response rating [2, 7] | Plant response rating, Ragweed [2, 8] | Plant response rating, Ragweed [2, 9] | Plant response rating, Ragweed [2, 10] | Plant response rating, Ragweed [2, 11] | Plant response rating, Ragweed [2, 12] | Ragweed plant response rating [2, 13] | Ragweed plant response rating [2, 14] | Johnsongrass plant response rating [3, 7] | Plant response rating, Johnsongrass [3, 8] | Plant response rating, Johnsongrass [3, 9] | Plant response rating, Johnsongrass [3, 10] | also measured |
| --- | --- | --- | --- | --- | --- | --- | --- | --- | --- | --- | --- | --- | --- | --- | --- | --- | --- | --- | --- | --- | --- |
| CCc1oc2ccc(C)cc2c1-c1c(O)c(C)nn(C)c1=O [Compound 10, 4-(2-ethyl-5-methyl-3-benzofuranyl)-5-hydroxy-2,6-dimethyl-3(2H)-pyridazinone] | 0 | 0 | 0 | 0 | 0 | 0 | 0 | 0 | 5 | 70 | 98 | 0 | 0 | 0 | 5 | 30 | 0 | 5 | 25 | 0 | Plant response rating, Johnsongrass [3, 11]: 0; Plant response rating, Johnsongrass [3, 12]: 0; Johnsongrass plant response rating [3, 13]: 0; Johnsongrass plant response rating [3, 14]: 0; pest or weed control at 1000 g/ha [4, 15]: 80%; pest or weed control at 1000 g/ha [4, 16]: 100%; plant injury at 1000 g/ha [5, 17]: 0%; plant injury at 1000 g/ha [5, 18]: 0%; plant injury at 1000 g/ha (corn (Zea mays); [19]): 20%; Corn plant response rating (crop injury, 0 = no effect, 100 = complete kill) at 1000 g/ha (corn (Zea mays); [20]): 10%; pest or weed control at 1000 g/ha [6, 21]: 90%; pest or weed control at 1000 g/ha [6, 22]: 100% |
| Cc1nn(C)c(=O)c(-c2cccc3ccccc23)c1O [Compound 11, 5-hydroxy-2,6-dimethyl-4-(1-naphthalenyl)-3(2H)-pyridazinone] | 0 | 0 | 0 | 0 | 0 | 0 | 0 | 0 | 0 | 95 | 95 | 15 | 50 | 80 | 90 | 40 | 0 | 5 | 5 | 0 | Plant response rating, Johnsongrass [3, 11]: 0; Plant response rating, Johnsongrass [3, 12]: 0; Johnsongrass plant response rating [3, 13]: 0; Johnsongrass plant response rating [3, 14]: 0; pest or weed control at 1000 g/ha [4, 15]: 90%; pest or weed control at 1000 g/ha [4, 16]: 90%; plant injury at 1000 g/ha [5, 17]: 60%; plant injury at 1000 g/ha [5, 18]: 50%; plant injury at 1000 g/ha (corn (Zea mays); [19]): 50%; Corn plant response rating (crop injury, 0 = no effect, 100 = complete kill) at 1000 g/ha (corn (Zea mays); [20]): 20%; pest or weed control at 1000 g/ha [6, 21]: 90%; pest or weed control at 1000 g/ha [6, 22]: 100% |
| Cc1cc(C)c2sc(C)c(-c3c(O)c(C)nn(C)c3=O)c2c1 [Compound 2, 5-hydroxy-2,6-dimethyl-4-(2,5,7-trimethylbenzo[b]thien-3-yl)-3(2H)-pyridazinone] | 65 | 70 | 75 | 0 | 20 | 65 | 65 | 70 | 80 | 95 | 98 | 65 | 100 | 100 | 98 | 80 | 5 | 5 | 5 | 0 | Plant response rating, Johnsongrass [3, 11]: 0; Plant response rating, Johnsongrass [3, 12]: 5; Johnsongrass plant response rating [3, 13]: 5; Johnsongrass plant response rating [3, 14]: 5; pest or weed control at 125 g/ha ([4]; post-emergence, Postemergence, visual rating after approx. 10 d, 0 to 100 scale (0 no effect, 100 complete control), read-out: Plant response rating, Foxtail, Giant): 80%; pest or weed control at 500 g/ha [4, 15]: 90%; pest or weed control at 125 g/ha ([4]; pre-emergence, Preemergence, 0 to 100 scale where 0 is no effect and 100 is complete control, read-out: Foxtail, Giant plant response rating): 100%; pest or weed control at 500 g/ha [4, 16]: 100%; plant injury at 125 g/ha ([5]; post-emergence, Postemergence, visual rating after approx. 10 d, 0 to 100 scale (0 no effect, 100 complete control), read-out: Plant response rating, Wheat): 20%; plant injury at 500 g/ha [5, 17]: 20%; plant injury at 125 g/ha ([5]; pre-emergence, Preemergence, 0 to 100 scale where 0 is no effect and 100 is complete control, read-out: Wheat plant response rating): 0%; plant injury at 500 g/ha [5, 18]: 0%; Corn plant response rating (crop injury, 0 = no effect, 100 = complete kill) at 125 g/ha (corn (Zea mays); post-emergence, Postemergence, 125 g ai/ha, visual rating after approx. 10 d, 0 to 100 scale (0 no effect, 100 complete control)): 0%; plant injury at 500 g/ha (corn (Zea mays); post-emergence, Postemergence, 500 g ai/ha, 0 to 100 scale, 0 is no effect, 100 is complete control, read-out: Corn plant response rating): 20%; plant injury at 125 g/ha (corn (Zea mays); pre-emergence, Preemergence, 125 g ai/ha, 0 to 100 scale where 0 is no effect and 100 is complete control, read-out: Corn plant response rating): 0%; Corn plant response rating (crop injury, 0 = no effect, 100 = complete kill) at 500 g/ha (corn (Zea mays); pre-emergence, Preemergence, 500 g ai/ha, 0 to 100 scale, 0 no effect, 100 complete control): 10%; pest or weed control at 125 g/ha ([6]; post-emergence, Postemergence, visual rating after approx. 10 d, 0 to 100 scale (0 no effect, 100 complete control), read-out: Plant response rating, Pigweed): 100%; pest or weed control at 500 g/ha [6, 21]: 100%; pest or weed control at 125 g/ha ([6]; pre-emergence, Preemergence, 0 to 100 scale where 0 is no effect and 100 is complete control, read-out: Pigweed plant response rating): 100%; pest or weed control at 500 g/ha [6, 22]: 100% |
